These results are taken from publication PMC10572522, “A Designed Analog of an Antimicrobial Peptide, Crabrolin, Exhibits Enhanced Anti-Proliferative and In Vivo Antimicrobial Activity” (International Journal of Molecular Sciences, 2023).

Structures are written as SMILES. Residues, ends and D or L forms follow the SMILES beside them.

For one data set, the system named is S. aureus (NCTC 10788). Put plainly: Antimicrobial susceptibility assay (MIC/MBC). The data set is classed as cell-based, Staphylococcus aureus. Conditions: for MIC: MHB, 37 °C, 20 h. The method, then: (§1) Six bacteria were tested in this experiment to detect the antimicrobial effects of crabrolin and its derivatives, including S. aureus (NCTC 10788), MRSA (NCTC 12493), E. coli (ATCC 8739), K. pneumoniae (ATCC 43816), E. faecium (NTCC-12697), and P. aeruginosa (ATCC 9027). The tested bacteria were cultured in Mueller Hinton broth medium (MHB) with norfloxacin (20 mg/L) as a positive control. All bacteria were incubated at 37 °C overnight and diluted to 5 × 10^5 CFU/mL before treating with the peptides. Stock solutions of 51,200 µM peptides were prepared in phosphate-buffered saline (PBS) and further diluted by a factor of two to 100 µM. Next, 1 µL of each peptide solution was mixed with 99 µL of bacterial subculture in a 96-well plate, and the plate was incubated at 37 °C for 20 h. After culturing, the absorbance of each well in the 96-well plate was analyzed at 550 nm using a Synergy HT plate reader (BioliseBioTek, Winooski, VT, USA). […] Starting with the MIC value, 10 µL of the solution from each well was dripped onto Mueller Hinton agar (MHA) plates. The plates were cultured at 37 °C for 20 h. After culturing, the lowest concentration with no colony growth was regarded as the MBC.

Another data set relates to MRSA (NCTC 12493). Put plainly: Antimicrobial susceptibility assay (MIC/MBC). In kind it is cell-based, methicillin-resistant Staphylococcus aureus. The settings on record: for MIC: MHB, 37 °C, 20 h. The method, then:
as §1

Data set [1] concerns K. pneumoniae (ATCC 43816). Briefly: Antimicrobial susceptibility assay (MIC/MBC). The settings on record: for MIC: MHB, 37 °C, 20 h. In kind it is cell-based, Klebsiella pneumoniae. How it is done: as §1
For data set [2], the system named is P. aeruginosa (ATCC 9027). Briefly: Antimicrobial susceptibility assay (MIC/MBC). The data set is classed as cell-based, Pseudomonas aeruginosa. Conditions: for MIC: MHB, 37 °C, 20 h. How it is done: as §1
For data set [3], the system named is MRSA (NCTC 12493) biofilm. The data set is classed as cell-based, methicillin-resistant Staphylococcus aureus. Conditions: for MBIC: biofilm inhibitory rate more than 90%; for MBEC: eradication rate greater than 99.9%. How it is done: To measure the antibiofilm activity of crabrolin and its derivatives, four drug-resistant biofilm-forming strains, MRSA (NCTC 12493), K. pneumoniae (ATCC 43816), E. faecium (NTCC-12697), and P. aeruginosa (ATCC 9027), were used in this assay. Tryptic soy broth (TSB) (for the Gram-positive bacteria) and Luria–Bertani broth (LB) (for the Gram-negative bacteria) were used to culture the bacteria.
The mass of the biofilm in this assay was detected by the crystal violet staining method. First, 100 μL of 5 × 10^5 CFU/mL bacteria was incubated with 1 μL of different peptide solutions (ranging from 51200 μM to 100 μM) for 24 h at 37 °C with 200 rpm shaking. After the biofilm formation, 100 μL of PBS was used to rinse the biofilm twice. Next, 100 µL of methanol was added to fix the biofilm, and the biofilm was then dried. Thereafter, 100 μL of 0.1% crystal violet was added and left to stain for 15 min, and then the excess crystal violet was further rinsed by PBS. After the plate had air-dried, 30% glacial acetic acid was added to each well of the plate, and the plate was shaken for 15 min before the optical density (OD) value was measured at 595 nm using a Synergy HT plate reader. The MBIC value refers to the minimum concentration at which the biofilm inhibitory rate was more than 90%.
Different from measuring the MBIC value, to determine the MBEC value, 100 μL of the bacteria was first added to 96-well plates. After the biofilm was formed, the biofilm was rinsed with PBS twice to remove the planktonic cells, and then different concentrations of the drugs were added to the biofilm (the same as the MBIC assay). The mixture was incubated at 37 °C with shaking at 200 rpm. After 24 h of incubation, the mass of the biofilm was measured in the same way as the MBIC value, and the minimum concentration at which the eradication rate was greater than 99.9% was considered to be the MBEC value.

Data set [4] relates to human breast cancer cell line MCF-7. Put plainly: Anti-proliferative assay (MTT). In kind it is cell-based. The settings on record: MCF-7, MTT, 24 h. The method, then:
(§2) The human non-small-cell lung cancer line, H838, the human prostate carcinoma cell line, PC-3, the human glioblastoma astrocytoma, U251MG, the human breast cancer cell line, MCF-7, the human colorectal carcinoma cell line, HCT116, and the human keratinocyte cell line, HaCaT, were used to detect the anti-proliferative effects of the crabrolin and its derivatives in vitro. A total of 8000 cells were seeded in each well of a 96-well plate. After the cells had adhered to the wall, the cells were starved for 4 h. After the starvation, the cells were incubated with different concentrations of the drugs, ranging from 100 µM to 1 nM, for 24 h, with 0.1% Triton X-100 used as a positive control. Next, 10 µL of MTT (3-(4,5-dimethylthiazol-2-yl)-2,5-diphenyltetrazolium bromide) solution (5 mg/mL) was added to each well of the 96-well plate. After 2 h of incubation, 100 μL of DMSO-superseded medium was added to each well to dissolve the formazan crystals. Finally, the absorbance was detected using a Synergy HT plate reader at 570 nm.

Data set [5] deals with human colorectal carcinoma cell line HCT-116. Put plainly: Anti-proliferative assay (MTT). In kind it is cell-based. The settings on record: HCT-116, MTT, 24 h. How it is done:
as §2

In data set [6] the test system is human glioblastoma astrocytoma U251MG. Briefly: Anti-proliferative assay (MTT). The settings on record: 24 h. The data set is classed as cell-based. How it is done: as §2
Data set [7] concerns human keratinocyte cell line HaCaT. Briefly: Anti-proliferative assay (MTT). In kind it is cell-based. The settings on record: HaCaT (normal keratinocytes), 24 h. The method, then:
as §2

The subject of data set [8] is human non-small-cell lung cancer line H838. Put plainly: Anti-proliferative assay (MTT). In kind it is cell-based. The settings on record: 24 h. How it is done: as §2
For data set [9], the system named is human prostate carcinoma cell line PC-3. Put plainly: Anti-proliferative assay (MTT). The data set is classed as cell-based. Conditions: PC3, MTT, 24 h. The method, then: as §2
A short description of the next data set: Hemolysis assay. In kind it is cell-based, horse. Conditions: horse, erythrocytes (2% suspension); for hemolysis at 2 h: at the peptide's maximum MIC, relative to Triton X-100, read-out: Hemolysis under the Maximum MIC. How it is done: (§3) According to the procedures described in detail in a previous study, the debris and impurities of the erythrocytes were washed with PBS in advance to yield 2% of the erythrocyte suspension, and the drug concentration was diluted from 1024 µM to 2 µM with PBS [53]. The same amounts of the drug and the erythrocyte suspension were mixed and cultured at 37 °C for 2 h; 0.1% Triton X-100 (Sigma-Aldrich, St. Louis, MO, USA) was prepared as a positive control, and PBS was prepared as a negative control. After the incubation, the supernatant was transferred to a 96-well plate and then detected using a Synergy HT plate reader at 570 nm.

A further data set concerns horse erythrocytes. Put plainly: Hemolysis assay. The data set is classed as cell-based. The settings on record: for HC10 (10% hemolytic concentration) / HC50 (50% hemolytic concentration): erythrocytes, 37 °C, 2 h. The method, then:
as §3

For the compound `CC[C@H](C)[C@H](NC(=O)[C@H](CCCNC(=N)N)NC(=O)[C@@H]1CCCN1C(=O)[C@H](CC(C)C)NC(=O)[C@@H](N)Cc1ccccc1)C(=O)N[C@@H](CC(C)C)C(=O)N[C@@H](CCCNC(=N)N)C(=O)N[C@@H](CCCCN)C(=O)N[C@H](C(=O)N[C@H](C(=O)N[C@@H](CCCNC(=N)N)C(=O)N[C@@H](C)C(=O)N[C@@H](CC(C)C)C(N)=O)C(C)C)[C@@H](C)CC` [Crabrolin-TR, FLPRILRKIVRAL-NH2] (H-FLPRILRKIVRAL-NH2), the MBC (in general, the lowest tested concentration that kills the bacteria rather than only halting them) in the data set on S. aureus (NCTC 10788) was found to be 2 µM; with MRSA (NCTC 12493) it was 2 µM; in [1] it was 8 µM; in data set [2], 8 µM. Moreover, the MIC (usually the lowest concentration that inhibits growth of the organism) in the data set on S. aureus (NCTC 10788) came out at 1 µM; in the data set on MRSA (NCTC 12493), 2 µM; in data set [1], 8 µM; in data set [2], 4 µM. For the same compound, the MBIC in data set [3] is 2 µM. Moreover, the MBEC in data set [3] stood at 64 µM. The IC50 – broadly, the concentration that inhibits the measured activity by half – was 3.46 µM in data set [4]; below 10 µM in [4] (listed as crabrolin-TR); 2.81 µM in data set [5]; 12.4 µM in data set [6]; above 10 µM in data set [6] (listed as crabrolin-TR); 20.9 µM in [7]. Also, the IC50 in data set [8] was 4.64 µM; in data set [8] (listed as crabrolin-TR), below 10 µM; in [9] it was 3.94 µM; in [9] (listed as crabrolin-TR) it was below 10 µM. Besides, the hemolysis at 2 h, 100 µM in “Hemolysis assay” (100 μM) was around 50%. In addition, the hemolysis at 2 h in “Hemolysis assay” was 3.76%. Further, the Hemolysis entry in the data set on horse erythrocytes (8 μM) was “neither crabrolin-TR nor crabrolin21 caused hemolysis”. In the data set with horse erythrocytes, the “HC10 (10% hemolytic concentration)” value came to 36.041 µM. In addition, in the data set on horse erythrocytes, the “HC50 (50% hemolytic concentration)” value is 211.927 µM.
As for `CC[C@H](C)[C@H](NC(=O)[C@H](CC(C)C)NC(=O)[C@@H]1CCCN1C(=O)[C@H](CC(C)C)NC(=O)[C@@H](N)Cc1ccccc1)C(=O)N[C@@H](CC(C)C)C(=O)N[C@@H](CCCNC(=N)N)C(=O)N[C@@H](CCCCN)C(=O)N[C@H](C(=O)N[C@H](C(=O)N[C@H](C(=O)N[C@@H](C)C(=O)N[C@@H](CC(C)C)C(N)=O)[C@@H](C)O)C(C)C)[C@@H](C)CC` [Crabrolin, FLPLILRKIVTAL-NH2] (H-FLPLILRKIVTAL-NH2), the minimum bactericidal concentration (MBC) in the data set with S. aureus (NCTC 10788) was determined as 4 µM; in the data set with MRSA (NCTC 12493) it was 8 µM; in [1], 128 µM; in data set [2], 256 µM. Besides, the minimum inhibitory concentration (MIC) was 2 µM with S. aureus (NCTC 10788); 4 µM with MRSA (NCTC 12493); 8 µM in the data set on MRSA (NCTC 12493) (listed as crabrolin); 64 µM in data set [1]; 128 µM in data set [2]. Also, the MBIC in data set [3] was found to be 4 µM. Besides, the MBEC in [3] stood at 128 µM. Also, the IC50 came to 26.5 µM in data set [4]; 8.54 µM in data set [5]; 20.1 µM in data set [6]; 31.2 µM in [7]; 27.7 µM in data set [8]; 32.1 µM in data set [9]. In addition, the hemolysis at 2 h in the data set “Hemolysis assay” is 53.5%. The Hemolytic activity in the data set with horse erythrocytes (256 µM) is 100%. The “HC10 (10% hemolytic concentration)” value with horse erythrocytes turned out to be 34.575 µM. The “HC50 (50% hemolytic concentration)” value with horse erythrocytes is 120.654 µM.
